Results published in patent EP4792811A1, “S1PR4 REGULATOR COMPOUND FOR MUSCLE DISEASE TREATMENT AND APPLICATION THEREOF” (Shengyuan Zetong (Shanghai) Pharmaceutical Co., Ltd, priority 2023, dated 2025).
Changes are numbered by the printed parent chain. “Also recorded” adds a separate entry of the source.

Columns and labels:
S1PR4 = molecular target: T1, S1PR4 (Homo sapiens, UniProt O95977); experiment: S1PR4 internalization function test in S1PR4-293T cells; format: cell-based; conditions: 1 µM, 37 °C, 1.5 hours; detected immediately, or at 5 hours or 20 hours after treatment
T1 construct: expressed in transfected cells; host or cells: 293T
T1 sequence (O95977 1-384): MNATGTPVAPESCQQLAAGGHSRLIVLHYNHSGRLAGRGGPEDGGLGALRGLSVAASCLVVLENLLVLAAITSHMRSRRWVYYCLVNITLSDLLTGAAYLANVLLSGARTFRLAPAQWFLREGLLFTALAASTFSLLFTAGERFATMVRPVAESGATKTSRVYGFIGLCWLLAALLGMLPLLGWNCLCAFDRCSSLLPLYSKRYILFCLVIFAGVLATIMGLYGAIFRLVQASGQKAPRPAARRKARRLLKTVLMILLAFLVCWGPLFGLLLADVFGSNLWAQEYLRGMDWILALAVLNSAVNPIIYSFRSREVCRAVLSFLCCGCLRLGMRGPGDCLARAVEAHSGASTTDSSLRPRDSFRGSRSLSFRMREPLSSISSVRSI
Protocol: Therefore, the recovery degree of S1PR4 after internalization caused by Compound 30 was evaluated, and the recovery effect following receptor internalization caused by Compound 30 was assessed in cells with high S1PR4 expression.

hS1P1 = molecular target: T2, hS1P1 (Homo sapiens, UniProt P21453); experiment: Tango β-arrestin recruitment assay, Tango-hS1P1-CHO; format: cell-based; conditions: final concentration 45 µM, 9 serial dilutions at 5-fold intervals; 20 h drug treatment; luciferase readout
T2 construct: expressed in transfected cells; host or cells: CHO-K1
Source text: (§1) The Tango assay detects ligand-dependent GPCR activity through the interaction between β-arrestin and GPCRs. […] The NTEV fragment and the tetracycline transactivator (tTA), an artificial transcription factor, are fused at the C-terminus of the GPCR, while the CTEV fragment is fused to human β-arrestin 2. To enhance the stability of the interaction between GPCR and β-arrestin, a short sequence from the C-terminus of the human arginine vasopressin receptor 2 (V2 tail) is inserted between the GPCR and NTEV. The V2 tail contains multiple GRK phosphorylation sites, which strengthen β-arrestin binding upon phosphorylation. The CTEV fragment carries the stabile point mutation S219P and is truncated at residue 221 to remove the autoinhibitory C-terminal tail. Meanwhile, β-arrestin 2 is truncated to lack the entire C-terminal tail (residues 383-410 deleted). This truncation confers robust stimulus-dependent receptor desensitization, thereby improving detection sensitivity compared with wild-type β-arrestin 2. The UAS reporter construct consists of upstream activating sequence (UAS) elements, a minimal CMV promoter, and a tTA-dependent luciferase reporter gene. Therefore, constructing Tango cells requires the co-transfection of the above three plasmids into host cells. Upon GPCR activation and β-arrestin recruitment, the TEV enzyme at the β-arrestin terminus cleaves tTA from the GPCR C-terminus. The released tTA initiates tTA-dependent luciferase transcription, and compound activity is ultimately determined by measuring luminescence intensity.
(§2) • 1) Tango cell line from was digested from the culture dish respectively. After cell counting, the cells were plated at a density of 10,000 cells per well with […] into a white opaque 96-well plate (add 60 µL D'Hanks to the surrounding wells), and incubated overnight (20 h) in a 5% CO2 incubator at 37°C. The cell density will reach approximately 90% the next day. • 2) After 20 h, 30 µL of serially diluted compound solution was added to each well. The control group was supplemented with 30 µL F12K complete medium. Each group had three replicate wells. • 3) Samples were collected after 20 h of drug treatment.
(§3) (All compounds were tested at a final concentration of 45 µM, with 9 serial dilutions at 5-fold intervals. 1 µM BAF-312 was used as the positive control for S1PR1, and 25 µM BAF-312 was used as the positive control for S1PR4.)
(§4) ^a β-arrestin recruitment activity based on Tango-S1PR1-CHO-K1 and Tango-S1PR4-CHO-K1 cells, expressed as mean EC50 values ± SD. ^b FLIPR assays were performed using S1PR2-CHO and S1PR5-CHO cell lines, expressed as mean EC50 values ± SD. ^c β-arrestin recruitment activity based on PathHunter CHO-K1-S1PR3 cells, expressed as mean EC50 values ± SD. Data are the mean of at least two independent determinations, reported as mean ± SD (standard deviation).

hS1P4 = molecular target: T3, hS1P4 (Homo sapiens, UniProt O95977); experiment: Tango β-arrestin recruitment assay, Tango-hS1P4-CHO; format: cell-based; conditions: final concentration 45 µM, 9 serial dilutions at 5-fold intervals; 20 h drug treatment; luciferase readout
T3 construct: expressed in transfected cells; host or cells: CHO-K1
T3 sequence (O95977 1-384): T1 sequence (O95977 1-384)
Source text: as §1, §2, §3, §4

[1] = test system: Duchenne muscular dystrophy model mice; experiment: In vivo efficacy in Duchenne muscular dystrophy mdx mice (Compound 67); conditions: for rotarod time: Day 42; for rotarod time / grip strength: compared with the model group; for grip strength: after 42 days of treatment
Protocol: Experimental animals: A total of 18 Duchenne muscular dystrophy model mice were divided into 3 groups with 6 mice in each group.
Intragastric administration was initiated on Day 0. Body weight was measured daily during the period to adjust the drug dosage. Grip strength and rotarod tests were performed on Day 20 and Day 42. Changes in the limb grip strength, exercise duration, and muscle fibrosis/inflammation in mice were detected as indicators for evaluating drug efficacy.
The mouse was placed horizontally on the grip test board. The mouse's tail was held and pulled gently in the opposite direction without using excessive force. The tail was gradually pulled until the mouse released the grip force sensor. The maximum value recorded by the grip force sensor is the grip strength. The test was repeated for 3 times and the average value was taken.
The rotarod test was conducted on Day 0, Day 20, and Day 42 respectively. The test was performed at an accelerating speed (0-16 rpm), reaching the maximum speed after 300 seconds, with a maximum test duration of 600 seconds. The time until the animal fell off was recorded^7.
After the experiment, the tibialis anterior, extensor digitorum longus, and diaphragm of the mice were harvested, fixed, sectioned, and subjected to HE staining and Sirius Red staining to observe the degree of muscle fibrosis.

hS1P4-R-79C = molecular target: T4, hS1P4-R-79C (Homo sapiens, UniProt O95977, R79C); experiment: Tango β-arrestin recruitment assay, Tango-hS1P4-R-79C-CHO; format: cell-based; conditions: final concentration 45 µM, 9 serial dilutions at 5-fold intervals; 20 h drug treatment; luciferase readout
T4 construct: expressed in transfected cells; host or cells: CHO
T4 sequence (O95977 1-384 R79C): T1 sequence (O95977 1-384) with R79C
Source text: as §1, §2, §3

LPS-induced sepsis model = experiment: LPS-induced sepsis myopathy (skeletal muscle atrophy) model; format: in vivo, mice; conditions: 14 days of LPS treatment
Source text: Animal models of sepsis can be established by injecting exogenous toxins into animals. In this study, a sepsis model was established via intraperitoneal injection of lipopolysaccharide to observe the effects of compounds on the occurrence and development of acquired weakness. This is a widely used method for modeling sepsis.
A skeletal muscle atrophy model induced by lipopolysaccharide can simulate clinical muscle atrophy caused by sepsis.
Mice were given a single intraperitoneal injection of LPS (1 mg/kg), followed by 14 consecutive days of intraperitoneal injection of either vehicle (1% DMSO dissolved in physiological saline) or Compound 30. Body weight was measured daily. After 14 days of LPS treatment, the mice were anesthetized, and the gastrocnemius and tibialis anterior muscles were harvested.

[2] = 20 mg/kg intragastric once daily
[3] = 3 mg/kg intragastric once daily

T2 sequence (P21453 whole entry): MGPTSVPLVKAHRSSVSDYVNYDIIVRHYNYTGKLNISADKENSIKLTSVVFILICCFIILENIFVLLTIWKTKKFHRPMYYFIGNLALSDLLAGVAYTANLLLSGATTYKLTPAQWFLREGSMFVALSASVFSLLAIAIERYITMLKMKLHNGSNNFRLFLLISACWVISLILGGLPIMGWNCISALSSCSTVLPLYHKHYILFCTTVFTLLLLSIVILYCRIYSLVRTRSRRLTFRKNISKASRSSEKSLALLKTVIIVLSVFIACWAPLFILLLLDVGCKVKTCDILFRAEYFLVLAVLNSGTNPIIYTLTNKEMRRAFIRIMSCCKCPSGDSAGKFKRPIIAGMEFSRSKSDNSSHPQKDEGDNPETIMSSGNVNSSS

Compound | EC50 (hS1P1) [nM] | EC50 (hS1P4) [nM] | EC50 (hS1P4-R-79C) [nM] | other results
CCCCCCCCCCCCC/C=C/[C@@H](O)[C@@H](N)COP(=O)(O)O [Compound S1P, sphingosine 1-phosphate, reference compound] | – | – | – | S1PR4 internalization (expression of S1PR4 receptor on the cell surface) (S1PR4): can induce S1PR4 internalization
CCc1cc(/C(C)=N/OCc2cc(C)c(-c3cnc(F)cn3)cc2F)ccc1CN1CC[C@H](C(=O)O)C1 [Compound 94, (S, E)-1-(2-ethyl-4-(1-(((2-fluoro-4-(5-fluoropyrazin-2-yl)-5-methylbenzyl)oxy)imino)ethyl)benzyl)pyrrolidine-3-carboxylic acid] | 614 ± 50.2 | 13.9 ± 1.48 | – | –
C[C@@H]1C[C@H]2[C@@H]3CCC4=CC(=O)C=C[C@]4(C)C3=CC[C@]2(C)[C@@]1(O)C(=O)CO [Vamorolone, reference compound] | – | – | – | collagen deposition (collagen area ratio) [1, 2]: significantly reduced collagen deposition; macrophage levels (F4/80 macrophage marker, muscle inflammation) [1, 2]: significantly reduced macrophage levels; number of centrally nucleated fibers (HE staining) [1, 2]: significantly reduced; serum creatine kinase level [1, 2]: significantly reduced the creatine kinase level; rotarod time [1, 2]: increased; grip strength [1, 2]: increased significantly; also recorded: marked increase; also recorded: significantly elevated
CCc1cc(/C(C)=N/OCc2ccc(-c3cnc(F)cn3)cc2)ccc1CN1CC[C@H](C(=O)O)C1 [Compound 89] | 5250 ± 235 | 135 ± 17.8 | – | –
C/C(=N\OCc1ccc(C2CCCCC2)c(C(F)(F)F)c1)c1ccc(CN2CC(C(=O)O)C2)c(C)c1 [Compound 18] | 2.95 ± 0.69 | 266 ± 62.8 | 63.1 ± 21.8 | –
CCc1cc(/C(C)=N/OCc2ccc(-c3ccccc3)c(C)c2)ccc1CNCCCC(=O)O [Compound 32, (E)-4-((2-ethyl-4-(1-((2-methyl-[1,1'-biphenyl]-4-yl)methoxy)imino)ethyl)benzyl)aminobutyric acid] | – | – | 110 ± 6.85 | –
CCc1cc(/C(C)=N/OCc2ccc(-c3cnc(F)cn3)c(C)c2)ccc1CN1CC[C@H](C(=O)O)C1 [Compound 67, (S, E)-1-(2-ethyl-4-(1-(((4-(5-fluoropyrazin-2-yl)-3-methylbenzyl)oxy)imino)ethyl)benzyl)pyrrolidine-3-carboxylic acid] | – | – | – | collagen deposition (collagen area ratio) [1, 3]: significantly reduced collagen deposition; macrophage levels (F4/80 macrophage marker, muscle inflammation) [1, 3]: significantly reduced macrophage levels; number of centrally nucleated fibers (HE staining) [1, 3]: significantly reduced; serum creatine kinase level [1, 3]: significantly reduced the creatine kinase level; rotarod time [1, 3]: increased; grip strength [1, 3]: marked increase; also recorded: significantly elevated; grip strength ([1]; 3 mg/kg intragastric once daily, listed as compound 67): increased significantly; S1PR4 internalization (expression of S1PR4 receptor on the cell surface) (S1PR4): sustained internalization capacity; atrophy of the tibialis anterior muscle (LPS-induced sepsis model; high dose (Compound 30: 10mg/kg intraperitoneal once daily)): significantly inhibited; atrophy of the tibialis anterior muscle (LPS-induced sepsis model; medium dose (Compound 30: 1mg/kg intraperitoneal once daily)): significantly inhibited
C/C(=N\OCc1ccc(C2CCCCC2)c(C(F)(F)F)c1)c1ccc(CN2CC(C(=O)O)C2)c(C(F)(F)F)c1 [Compound 19] | 8.63 ± 0.39 | 564 ± 184 | 121 ± 30.4 | –

The next lines start with results.

EC50 (hS1P1) [nM] | EC50 (hS1P4) [nM] | EC50 (hS1P4-R-79C) [nM] | Compound | other results
348 ± 40.4 | 12 ± 1 | – | CCc1cc(/C(C)=N/OCc2ccc(-c3cnc(F)cn3)c(C)c2F)ccc1CN1CC[C@H](C(=O)O)C1 [Compound 93, (S, E)-1-(2-ethyl-4-(1-(((2-fluoro-4-(5-fluoropyrazin-2-yl)-3-methylbenzyl)oxy)imino)ethyl)benzyl)pyrrolidine-3-carboxylic acid] | –
5.63 ± 0.15 | 573 ± 106 | – | C/C(=N\OCc1ccc(C2CCCCC2)c(C(F)(F)F)c1)c1ccc(CN2CC(C(=O)O)C2)c(F)c1 [Compound 11] | –
– | 262 ± 37.3 | 160 ± 4.9 | C/C(=N\OCc1ccc(C2CCCCC2)c(C(F)(F)F)c1)c1ccc(CNCCC(=O)O)cc1 [Compound 10, (E)-3-((4-((1-((4-cyclohexyl-3-(trifluoromethyl)benzyl)oxy)imino)ethyl)benzyl)amino)propanoic acid] | –
125 ± 14.5 | 75.4 ± 5.72 | – | CCc1cc(/C(C)=N/OCc2ccc(-c3cnc(F)cn3)c(C)c2)ccc1CN1CC[C@@H](C(=O)O)C1 [Compound 95, (R, E)-1-(2-ethyl-4-(1-(((4-(5-fluoropyrazin-2-yl)-3-methylbenzyl)oxy)imino)ethyl)benzyl)pyrrolidine-3-carboxylic acid] | –
2.21 ± 0.58 | – | 95.6 ± 42.1 | CCc1cc(/C(C)=N/OCc2ccc(C3CCCC3)c(C(F)(F)F)c2)ccc1CN1CC(C(=O)O)C1 [Compound 17] | –
